Test results as given in publication PMC9933482 (ACS Omega, 2023).
≈ marks a conversion by molar mass, not a printed value. Entries after “also recorded” stand apart in the source; their conditions may differ.

Experiments:
caspase-9 = assay: Caspase 9 assay; assay type: cell-based, human; details: for increase in level of active caspase-9 compared to control: HePG-2; for Casp9 OD: HepG2 cells treated with compound
[1] = biological target: recombinant human carbonic anhydrase XII (hCAXII) (Homo sapiens, UniProt O43570); assay: hCAXII enzyme inhibition assay; assay type: biochemical
Chain of recombinant human carbonic anhydrase XII (hCAXII) (O43570 25-291): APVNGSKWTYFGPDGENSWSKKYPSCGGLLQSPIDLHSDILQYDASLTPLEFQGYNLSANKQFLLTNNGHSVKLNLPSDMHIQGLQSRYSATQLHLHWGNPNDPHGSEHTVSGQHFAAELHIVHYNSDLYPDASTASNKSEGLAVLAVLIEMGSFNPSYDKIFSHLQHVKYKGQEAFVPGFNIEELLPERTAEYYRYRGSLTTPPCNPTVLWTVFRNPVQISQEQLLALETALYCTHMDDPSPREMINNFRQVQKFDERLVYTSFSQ

[2] = biological target: human carbonic anhydrase IX (hCAIX) (Homo sapiens, UniProt Q16790); assay: biochemical
MCF-7 cell line = assay: MTT cytotoxicity assay, MCF-7; assay type: cell-based, human; details: Homo sapiens, MCF7, 24 h, read-out: IC50 in μg/mL MCF-7, MTT, 24 h treatment
HePG-2 cells [3] = assay: Annexin V-FITC/PI apoptosis and necrosis assay by flow cytometry; assay type: cell-based, human; details: for increase of early apoptotic ratio compared to control cells / increase of late apoptotic % compared to control cells / necrosis compared to the control cell HePG-2: HePG-2; for apoptosis total, cell content % / apoptosis early, cell content % / necrosis, cell content % / apoptosis late, cell content %: HePG-2, compound at IC50; for apoptosis early, cell content %: lower right quadrant; for necrosis, cell content %: upper left quadrant; for apoptosis late, cell content %: upper right quadrant
HePG-2 cell line = assay: MTT cytotoxicity assay, HePG-2; assay type: cell-based, human; details: Homo sapiens, HepG2, 24 h, read-out: IC50 in μg/mL HePG-2, MTT, 24 h treatment
[4] = system: human lung fibroblast cell line WI38; assay: MTT cell viability, normal lung fibroblast WI38; assay type: cell-based; details: WI-38, read-out: IC50 in μg/mL WI38
HePG-2 cells [5] = assay: Cell cycle analysis by DNA flow cytometry; assay type: cell-based, human; details: for %G0–G1 (DNA content) / %G2/M (DNA content) / %S (DNA content): HePG-2, compound at IC50, 24 h

N#CC1CSc2[nH]c(=O)sc2C1c1cn(-c2ccccc2)nc1-c1ccc(Br)cc1 (stereo not drawn) [compound 7e, 7-(3-(4-Bromophenyl)-1-phenyl-1H-pyrazol-4-yl)-2-oxo-3,5,6,7-tetrahydro-2H-thiopyrano-[2,3-d]thiazole-6-carbonitrile]
increase in level of active caspase-9 compared to control (caspase-9): ~4 fold
Casp9 OD (caspase-9): 0.813
IC50 [1]: 202 ± 11 nM
IC50 [2]: 67 ± 3 nM
IC50 (MCF-7 cell line): 10.1 ± 2.1 µg/mL (≈ 20.4 µM)
increase of early apoptotic ratio compared to control cells (HePG-2 cells [3]): 21 fold
increase of late apoptotic % compared to control cells (HePG-2 cells [3]): approximately 101 fold
necrosis compared to the control cell HePG-2 (HePG-2 cells [3]): ~3 fold
apoptosis total, cell content % (HePG-2 cells [3]): 36.28%
apoptosis early, cell content % (HePG-2 cells [3]): 11.91%
necrosis, cell content % (HePG-2 cells [3]): 3.13%
apoptosis late, cell content % (HePG-2 cells [3]): 21.24%
IC50 (HePG-2 cell line): 9.11 ± 3.2 µg/mL (≈ 18.4 µM)
IC50 [4]: 27.1 ± 3.3 µg/mL (≈ 54.6 µM)
cell cycle comment (phase of arrest) (HePG-2 cells [5]; HePG-2): arrested in phase S; also recorded: cell growth arrest@S
increase of cell ratio in phase S compared to the control (HePG-2 cells [5]; HePG-2): 1.2 fold
%G0–G1 (DNA content) (HePG-2 cells [5]): 41.39%
%G2/M (DNA content) (HePG-2 cells [5]): 14.36%
%S (DNA content) (HePG-2 cells [5]): 44.25%

CCOC(=O)C1CSc2[nH]c(=O)sc2C1c1cn(-c2ccccc2)nc1-c1ccc(Cl)cc1 (stereo not drawn) [compound 7i, Ethyl 7-(3-(4-Chlorophenyl)-1-phenyl-1H-pyrazol-4-yl)-2-oxo-3,5,6,7-tetra-hydro-2H-thiopyrano[2,3-d]thiazole-6-carboxylate]
increase in level of active caspase-9 compared to control (caspase-9): 3 fold
Casp9 OD (caspase-9): 0.609
caspase-9 protein level vs untreated cells, Image J analysis (caspase-9; after normalization to β-actin): 2.98 fold
IC50 [1]: 123 ± 7 nM
IC50 [2]: 287 ± 14 nM
IC50 (MCF-7 cell line): 10.1 ± 1.5 µg/mL (≈ 20.2 µM)
increase of early apoptotic ratio compared to control cells (HePG-2 cells [3]): 52 fold
increase of late apoptotic % compared to control cells (HePG-2 cells [3]): ~45 fold
necrosis compared to the control cell HePG-2 (HePG-2 cells [3]): ~3 fold
apoptosis total, cell content % (HePG-2 cells [3]): 41.13%
apoptosis early, cell content % (HePG-2 cells [3]): 28.71%
necrosis, cell content % (HePG-2 cells [3]): 2.91%
apoptosis late, cell content % (HePG-2 cells [3]): 9.51%
IC50 (HePG-2 cell line): 7.83 ± 2.1 µg/mL (≈ 15.7 µM)
IC50 [4]: 19.5 ± 1.6 µg/mL (≈ 39.1 µM)
cell cycle comment (phase of arrest) (HePG-2 cells [5]; HePG-2): arrested in phase G2/M; also recorded: cell growth arrest@G2/M
increase of cell ratio in phase G2/M compared to the control (HePG-2 cells [5]; HePG-2): 1.6 fold
%G0–G1 (DNA content) (HePG-2 cells [5]): 39.56%
%G2/M (DNA content) (HePG-2 cells [5]): 27.93%
%S (DNA content) (HePG-2 cells [5]): 32.51%
